Type in all cases: in vivo
In assay [1] the test system is Avena fatua, Stellaria media, Echinochloa crus galli, Lolium multiflorum, Setaria viridis, Abutilon theophrasti, Amaranthus retroflexus, Viola tricolor …. Kind of assay: Pre-emergence herbicidal effect, harmful plants. As to conditions: pre-emergence method, application rate of 0.32 kg and less of active substance per hectare. From the text:
Seeds of monocotyledonous or dicotyledonous weed plants or crop plants are placed in sandy loam in wood-fiber pots and covered with soil. The compounds according to the invention, formulated in the form of wettable powders (WP), are then applied as aqueous suspension at a water application rate of 600 l/ha (converted) with the addition of 0.2% of wetting agent to the surface of the covering soil. After the treatment, the pots are placed in a greenhouse and kept under good growth conditions for the test plants. After about 3 weeks, the effect of the preparations is scored visually in comparison with untreated controls (herbicidal effect in percent (%): 100% activity=the plants have died, 0% activity=like control plants).

For a further assay, the system named is Zea mays (corn). Briefly: Post-emergence crop plant compatibility, corn. As to conditions: after about 3 weeks. On the procedure:
(§1) Seeds of monocotyledonous and dicotyledonous weed and crop plants are placed in sandy loam in wood fibre pots, covered with soil and cultivated in a greenhouse under good growth conditions. 2 to 3 weeks after sowing, the test plants are treated at the one-leaf stage. The compounds according to the invention, formulated in the form of wettable powders (WP), are then applied as aqueous suspension at a water application rate of 600 l/ha (converted) with the addition of 0.2% of wetting agent to the green parts of the plants. After the test plants have been kept in the greenhouse under optimum growth conditions for about 3 weeks, the activity of the preparations is rated visually in comparison to untreated controls (herbicidal activity in percent (%): 100% activity=the plants have died, 0% activity=like control plants).

The next assay has as its system Polygunum convolvulus. Briefly: Post-emergence herbicidal effect, Polygunum convolvulus. To be noted: after about 3 weeks. The protocol:
as §1

Assay [2] deals with Setaria viridis (green foxtail). Briefly: Post-emergence herbicidal effect, green foxtail. As to conditions: after about 3 weeks. On the procedure:
as §1

In the next assay the test system is Avena fatua. Kind of assay: Post-emergence herbicidal effect, Avena fatua. To be noted: after about 3 weeks. The protocol:
as §1

Assay [3] relates to Lolium multiflorum (Italian ryegrass). Kind of assay: Post-emergence herbicidal effect, Italian ryegrass. To be noted: after about 3 weeks. The protocol: as §1
The next assay relates to Stellaria media. Kind of assay: Post-emergence herbicidal effect, Stellaria media. As to conditions: after about 3 weeks. The protocol: as §1
Assay [4] relates to Avena fatua, Echinochloa crus galli, Lolium multiflorum, Setaria viridis and Alopecurus myosuroides. Briefly: Post-emergence herbicidal effect, harmful plants. As to conditions: post-emergence method, application rate of 0.32 kg and less of active substance per hectare. The protocol: as §1

`Cn1nc(C(F)(F)F)c(C[S@@+]([O-])c2ncc(Br)s2)c1OCC(F)(F)F` [Compound 3728]: the “herbicidal activity against harmful plants” value in assay [1] and in assay [4] was “very good herbicidal activity” throughout. In addition, the “herbicidal activity in percent, ZEAMX” value in the assay with Zea mays (corn) (20 g of active compound/ha) and with Zea mays (corn) (80 g of active compound/ha) was 0% in each case. In addition, the “herbicidal activity in percent, POLCO” value with Polygunum convolvulus (80 g of active compound/ha) is reported as 10%. For the same compound, the “herbicidal activity in percent, SETVI” value in assay [2] (20 g of active compound/ha) and in assay [2] (80 g of active compound/ha) was 10% each time. Also, the “herbicidal activity in percent, AVEFA” value with Avena fatua (20 g of active compound/ha) worked out at 0%; in the assay with Avena fatua (80 g of active compound/ha), 10%. Also, the “herbicidal activity in percent, LOLMU” value in assay [3] (20 g of active compound/ha) and in assay [3] (80 g of active compound/ha) was 0% in each case. The “herbicidal activity in percent, STEME” value with Stellaria media (20 g of active compound/ha) is on record as 0%; with Stellaria media (80 g of active compound/ha), 10%.
`Cn1nc(C(F)(F)F)c(C[S@+]([O-])c2ncc(Br)s2)c1OCC(F)(F)F` [Compound 2640]: the “herbicidal activity against harmful plants” value in assay [1] and in assay [4] was “very good herbicidal activity” in each case. For the same compound, the “herbicidal activity in percent, ZEAMX” value in the assay with Zea mays (corn) (20 g of active compound/ha) and with Zea mays (corn) (80 g of active compound/ha) was 0% in each case. The “herbicidal activity in percent, POLCO” value with Polygunum convolvulus (20 g of active compound/ha) is 20%; in the assay with Polygunum convolvulus (80 g of active compound/ha), 100%. Also, the “herbicidal activity in percent, SETVI” value in assay [2] (20 g of active compound/ha) and in assay [2] (80 g of active compound/ha) was 100% in each case. Moreover, the “herbicidal activity in percent, AVEFA” value with Avena fatua (20 g of active compound/ha) stood at 20%; in the assay with Avena fatua (80 g of active compound/ha), 90%. The “herbicidal activity in percent, LOLMU” value in assay [3] (20 g of active compound/ha) was found to be 60%; in assay [3] (80 g of active compound/ha) it was 100%. The “herbicidal activity in percent, STEME” value in the assay with Stellaria media (20 g of active compound/ha) is listed as 10%; in the assay with Stellaria media (80 g of active compound/ha), 90%.

The values above are taken from US8754234B2, “Chiral 2-(benzylsulfinyl)thiazole derivatives and 2-[(1H-pyrazol-4-ylmethyl)sulfinyl]thiazole derivatives, processes for their preparation and their use as herbicides and plant growth regulators” (Bayer Cropscience AG, priority 2007, dated 2014).
